Literature values as cited in publication PMC5493349, “Quaternary structure is an essential component that contributes to the sophisticated allosteric regulation mechanism in a key enzyme from Mycobacterium tuberculosis” (PLoS ONE, 2017).

How the values were obtained:
Settings in all cases: cited from earlier work
wild-type MtuDAH7PS [1] = target: T1, wild-type MtuDAH7PS (Mycobacterium tuberculosis, UniProt O53512)
wild-type MtuDAH7PS [2] = target: T1, wild-type MtuDAH7PS; remark: listed apart in the source
wild-type MtuDAH7PS [3] = target: T1, wild-type MtuDAH7PS; remark: listed apart in the source

T1 sequence (O53512 whole entry): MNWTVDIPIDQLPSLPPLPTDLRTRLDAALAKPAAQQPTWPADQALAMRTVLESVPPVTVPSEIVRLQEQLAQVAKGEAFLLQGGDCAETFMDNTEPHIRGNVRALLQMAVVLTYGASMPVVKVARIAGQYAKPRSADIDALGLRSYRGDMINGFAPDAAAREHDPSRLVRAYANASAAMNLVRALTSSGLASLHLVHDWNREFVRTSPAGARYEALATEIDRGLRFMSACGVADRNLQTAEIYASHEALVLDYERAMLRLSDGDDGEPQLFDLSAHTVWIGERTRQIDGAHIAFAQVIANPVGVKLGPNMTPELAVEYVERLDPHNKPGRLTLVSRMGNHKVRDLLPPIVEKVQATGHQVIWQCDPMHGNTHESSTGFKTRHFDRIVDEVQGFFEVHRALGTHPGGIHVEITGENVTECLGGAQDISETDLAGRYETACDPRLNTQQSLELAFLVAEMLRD

Row | SMILES | inhibition of wild type MtuDAH7PS by Trp alone (wild-type MtuDAH7PS [1]) | reduction in Kd of Trp after pre-incubation with Phe (wild-type MtuDAH7PS [2]) | E4P0.5 (wild-type MtuDAH7PS [3])
1 | N[C@@H](Cc1c[nH]c2ccccc12)C(=O)O [Trp, L-Trp] | not inhibitory | 4 fold | 
2 | O=C[C@H](O)[C@H](O)COP(=O)(O)O [E4P, erythrose 4-phosphate] |  |  | 382 µM
